Assay results: patent publication US11566007B2, “Ras inhibitors” (Revolution Medicines, Inc., priority 2019, dated 2023)

Experiments:
KRAS G12V = KRAS G12V (Homo sapiens (Human), UniProt P01116+P62937, G12V); assay: Ras-Raf (BRAF RBD) disruption / FRET / MOA assay, KRAS G12V; type: biochemical; details: read-out: IC50* KRAS G12V FRET data
How it was run: (§1)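 A 10-point, 3-fold dilution series topping at 30 μM final was incubated 3 h at 25° C with the Ras/cyclophilin A/BRAF RBD mixture.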

NRAS Q61K = NRAS Q61K (Homo sapiens (Human), UniProt P01111+P62937, Q61K); assay: Ras-Raf (BRAF RBD) disruption / FRET / MOA assay, NRAS Q61K; type: biochemical; details: NRAS Q61K; Ras-Raf disruption/FRET/MOA assay; read-out: IC50* NRAS Q61K FRET data
How it was run: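 Compounds (30 μM top final, 10-point 3-fold dilutions) incubated 3 h at 25° C with nucleotide-loaded Ras, cyclophilin A and BRAF RBD. Detection with 10 nM anti-His Eu-W1024 and 50 nM anti-GST allophycocyanin over another 1.5 h. Lowered TR-FRET ratio relative to DMSO wells gives IC50.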

NCI-H358 (K-Ras G12C) = assay: CellTiter-Glo cell viability assay, NCI-H358; type: cell-based, human; details: Homo sapiens, NCI-H358, 120 h, NCI-H358, 5-day treatment; class symbols; read-out: Additional H358 Cell Viability assay data (K-Ras G12C, IC50)
How it was run: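 Cells seeded, compound added directly, 5-day exposure. Plates to RT ~30 min, CellTiter-Glo luminescence read. Normalized to DMSO avg (x100); 4-parameter logistic fit.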

KRAS WT = KRAS WT (Homo sapiens (Human), UniProt P01116+P62937); assay: Ras-Raf (BRAF RBD) disruption / FRET / MOA assay, KRAS WT; type: biochemical; details: read-out: IC50* KRAS WT FRET data
How it was run: as §1

KRAS G12S = KRAS G12S (Homo sapiens (Human), UniProt P01116+P62937, G12S); assay: Ras-Raf (BRAF RBD) disruption / FRET / MOA assay, KRAS G12S; type: biochemical; details: Ras-Raf disruption/FRET/MOA assay; class symbols; read-out: KRAS G12S FRET data IC50
How it was run: as §1

KRAS G12D = KRAS G12D (Homo sapiens (Human), UniProt P01116+P62937, G12D); assay: Ras-Raf (BRAF RBD) disruption / FRET / MOA assay, KRAS G12D; type: biochemical; details: Ras-Raf disruption/FRET/MOA assay; class symbols; read-out: KRAS G12D FRET data IC50
How it was run: as §1

KRAS G13D = KRAS G13D (Homo sapiens (Human), UniProt P01116+P62937, G13D); assay: Ras-Raf (BRAF RBD) disruption / FRET / MOA assay, KRAS G13D; type: biochemical; details: read-out: IC50* KRAS G13D FRET data
How it was run: as §1

NRAS G12C = NRAS G12C (Homo sapiens (Human), UniProt P01111+P62937, G12C); assay: Ras-Raf (BRAF RBD) disruption / FRET / MOA assay, NRAS G12C; type: biochemical; details: read-out: IC50* NRAS G12C FRET data
How it was run: as §1

Sequence of KRAS WT (P01116-2 other isoform, or with tags, fused parts or gaps): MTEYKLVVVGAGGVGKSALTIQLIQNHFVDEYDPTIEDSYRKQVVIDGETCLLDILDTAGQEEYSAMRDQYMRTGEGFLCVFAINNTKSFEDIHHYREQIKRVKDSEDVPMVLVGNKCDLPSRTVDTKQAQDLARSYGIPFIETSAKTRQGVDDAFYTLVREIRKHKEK
Sequence of KRAS WT (P62937 whole entry): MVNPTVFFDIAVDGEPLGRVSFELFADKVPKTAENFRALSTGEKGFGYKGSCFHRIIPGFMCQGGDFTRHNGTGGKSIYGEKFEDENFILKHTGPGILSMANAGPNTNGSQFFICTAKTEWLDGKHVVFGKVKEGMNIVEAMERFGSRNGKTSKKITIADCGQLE
Sequence of NRAS G12C (P01111 whole entry G12C): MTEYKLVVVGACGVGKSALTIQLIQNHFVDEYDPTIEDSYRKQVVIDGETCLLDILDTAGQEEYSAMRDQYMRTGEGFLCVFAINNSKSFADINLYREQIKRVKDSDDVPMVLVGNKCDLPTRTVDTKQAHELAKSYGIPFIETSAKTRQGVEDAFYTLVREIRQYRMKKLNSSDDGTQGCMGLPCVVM
Sequence of NRAS G12C (P62937 whole entry): as the sequence (P62937 whole entry) above
Sequence of NRAS Q61K (P01111 whole entry Q61K): as the sequence (P01111 whole entry G12C) above, with C12G, Q61K counted along it
Sequence of NRAS Q61K (P62937 whole entry): as the sequence (P62937 whole entry) above
Sequence of KRAS G12V (P01116-2 other isoform, or with tags, fused parts or gaps G12V): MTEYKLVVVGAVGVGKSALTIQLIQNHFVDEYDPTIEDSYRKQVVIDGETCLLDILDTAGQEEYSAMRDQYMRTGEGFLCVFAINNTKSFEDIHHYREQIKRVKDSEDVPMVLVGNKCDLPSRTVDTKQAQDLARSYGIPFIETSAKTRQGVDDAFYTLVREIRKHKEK
Sequence of KRAS G12V (P62937 whole entry): as the sequence (P62937 whole entry) above
Sequence of KRAS G12S (P01116-2 other isoform, or with tags, fused parts or gaps G12S): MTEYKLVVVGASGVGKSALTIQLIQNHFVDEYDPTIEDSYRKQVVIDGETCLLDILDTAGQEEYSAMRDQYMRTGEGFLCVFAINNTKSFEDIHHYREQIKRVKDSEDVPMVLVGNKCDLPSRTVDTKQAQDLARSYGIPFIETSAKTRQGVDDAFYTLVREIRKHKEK
Sequence of KRAS G12S (P62937 whole entry): as the sequence (P62937 whole entry) above
Sequence of KRAS G12D (P01116-2 other isoform, or with tags, fused parts or gaps G12D): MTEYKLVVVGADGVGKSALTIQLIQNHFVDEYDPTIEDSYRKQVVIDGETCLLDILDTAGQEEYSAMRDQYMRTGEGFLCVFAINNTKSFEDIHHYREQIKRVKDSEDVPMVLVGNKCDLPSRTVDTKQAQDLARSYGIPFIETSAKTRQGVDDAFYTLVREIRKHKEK
Sequence of KRAS G12D (P62937 whole entry): as the sequence (P62937 whole entry) above
Sequence of KRAS G13D (P01116-2 other isoform, or with tags, fused parts or gaps G13D): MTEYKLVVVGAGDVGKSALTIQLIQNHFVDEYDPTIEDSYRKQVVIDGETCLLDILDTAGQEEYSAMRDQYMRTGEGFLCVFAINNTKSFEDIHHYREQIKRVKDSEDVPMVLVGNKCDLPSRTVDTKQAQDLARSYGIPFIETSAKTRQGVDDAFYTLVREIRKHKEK
Sequence of KRAS G13D (P62937 whole entry): as the sequence (P62937 whole entry) above

SMILES | IC50 (KRAS G12V) | IC50 (NRAS Q61K) | IC50 (NCI-H358 (K-Ras G12C)) | IC50 (KRAS WT) | IC50 (KRAS G12S) | IC50 (KRAS G12D) | IC50 (KRAS G13D) | IC50 (NRAS G12C)
C=CC(=O)N1CCOC2(CCN(C(=O)N(C)[C@H](C(=O)N[C@H]3Cc4cccc(n4)-c4ccc5c(c4)c(c(-c4cccnc4[C@H](C)OC)n5CC(F)(F)F)CC(C)(C)COC(=O)[C@@H]4CCCN(N4)C3=O)C(C)C)CC2)C1 (atropisomer, axis not shown) [Example A607, 4-acryloyl-N-((2S)-1-(((6^3S,4S)-1^2-(2-((S)-1-methoxyethyl)pyridin-3-yl)-10,10-dimethyl-5,7-dioxo-1^1-(2,2,2-trifluoroethyl)-6^1,6^2,6^3,6^4,6^5,6^6-hexahydro-1^1H-8-oxa-1(5,3)-indola-6(1,3)-pyridazina-2(2,6)-pyridinacycloundecaphane-4-yl)amino)-3-methyl-1-oxobutan-2-yl)-N-methyl-1-oxa-4,9-diazaspiro[5.5]undecane-9-carboxamide] | 1000 to 10000 nM | 100 to 1000 nM | 10 to 100 nM | 100 to 1000 nM | 1000 to 10000 nM | 1000 to 10000 nM | 1000 to 10000 nM | 100 to 1000 nM
CCn1c(-c2cccnc2[C@H](C)OC)c2c3cc(ccc31)-c1csc(n1)C[C@H](NC(=O)[C@H](C(C)C)N(C)C(=O)N1CCC13CN(C(=O)/C=C/CN1CCOCC1)C3)C(=O)N1CCC[C@H](N1)C(=O)OCC(C)(C)C2 (atropisomer, axis not shown) [Example A611] | 100 to 1000 nM | 10 to 100 nM | 10 to 100 nM | 100 to 1000 nM | 100 to 1000 nM | 1000 to 10000 nM | 100 to 1000 nM | 100 to 1000 nM
CCn1c(-c2cccnc2[C@H](C)OC)c2c3cc(ccc31)-c1cccc(c1)C[C@H](NC(=O)[C@@H](COC1CN(C(=O)C#CC(C)(C)N(C)C3CC3)C1)C(C)C)C(=O)N1CCC[C@H](N1)C(=O)OCC(C)(C)C2 (atropisomer, axis not shown) [Example A613] | > 10000 nM | > 10000 nM | 10 to 100 nM | > 10000 nM | > 10000 nM | > 10000 nM | > 10000 nM | 1000 to 10000 nM
CCn1c(-c2cccnc2[C@H](C)OC)c2c3cc(ccc31)N1CCC[C@@H](C[C@H](NC(=O)[C@H](C(C)C)N(C)C(=O)[C@H]3CCN(C(=O)C#CC(C)(C)N4CCC4)C3)C(=O)N3CCC[C@H](N3)C(=O)OCC(C)(C)C2)C1 (atropisomer, axis not shown) [Example A617] | > 10000 nM | > 10000 nM | 10 to 100 nM | > 10000 nM | > 10000 nM | > 10000 nM | > 10000 nM | 10 to 100 nM
C=CC(=O)N1CCC[C@H]2CN(C(=O)N(C)[C@H](C(=O)N[C@H]3Cc4nc(cs4)-c4ccc5c(c4)c(c(-c4cccnc4[C@H](C)OC)n5CC)CC(C)(C)COC(=O)[C@@H]4CCCN(N4)C3=O)C(C)C)C[C@H]21 (atropisomer, axis not shown) [Example A618] | 100 to 1000 nM | 100 to 1000 nM | 10 to 100 nM | 100 to 1000 nM | 100 to 1000 nM | 1000 to 10000 nM | 1000 to 10000 nM | 100 to 1000 nM
CCn1c(-c2cccnc2[C@H](C)OC)c2c3cc(ccc31)-c1csc(n1)C[C@H](NC(=O)[C@H](C(C)C)N(C)C(=O)N1C[C@@H]3CN(C(=O)C#CC(C)(C)N(C)C)CC[C@@H]31)C(=O)N1CCC[C@H](N1)C(=O)OCC(C)(C)C2 (atropisomer, axis not shown) [Example A625] | 100 to 1000 nM | 100 to 1000 nM | 10 to 100 nM | 100 to 1000 nM | 100 to 1000 nM | 1000 to 10000 nM | 1000 to 10000 nM | 100 to 1000 nM
C=CC(=O)N(C)[C@H]1CN(C(=O)N(C)[C@H](C(=O)N[C@H]2Cc3nc(cs3)-c3ccc4c(c3)c(c(-c3cccnc3[C@H](C)OC)n4CC)CC(C)(C)COC(=O)[C@@H]3CCCN(N3)C2=O)C(C)C)C[C@@H]1F (atropisomer, axis not shown) [Example A632] | 100 to 1000 nM | 100 to 1000 nM | 100 to 1000 nM | 100 to 1000 nM | 100 to 1000 nM | 1000 to 10000 nM | 1000 to 10000 nM | 10 to 100 nM
C=CC(=O)N(C)[C@@H]1C[C@H](C)N(C(=O)N(C)[C@H](C(=O)N[C@H]2Cc3nc(cs3)-c3ccc4c(c3)c(c(-c3cccnc3[C@H](C)OC)n4CC)CC(C)(C)COC(=O)[C@@H]3CCCN(N3)C2=O)C(C)C)C1 (atropisomer, axis not shown) [Example A633] | 100 to 1000 nM | 10 to 100 nM | 10 to 100 nM | 10 to 100 nM | 100 to 1000 nM | 100 to 1000 nM | 100 to 1000 nM | 10 to 100 nM
C=CC(=O)N(C)[C@@H]1C[C@@H](C)N(C(=O)N(C)[C@H](C(=O)N[C@H]2Cc3nc(cs3)-c3ccc4c(c3)c(c(-c3cccnc3[C@H](C)OC)n4CC)CC(C)(C)COC(=O)[C@@H]3CCCN(N3)C2=O)C(C)C)C1 (atropisomer, axis not shown) [Example A634] | 100 to 1000 nM | 100 to 1000 nM | 10 to 100 nM | 100 to 1000 nM | 100 to 1000 nM | 1000 to 10000 nM | 1000 to 10000 nM | 10 to 100 nM
C=CC(=O)N1CCCC2(CCN(C(=O)N(C)[C@H](C(=O)N[C@H]3Cc4nc(cs4)-c4ccc5c(c4)c(c(-c4cccnc4[C@H](C)OC)n5CC)CC(C)(C)COC(=O)[C@@H]4CCCN(N4)C3=O)C(C)C)CC2)C1 (atropisomer, axis not shown) [Example A635] | 100 to 1000 nM | 100 to 1000 nM | 100 to 1000 nM | 100 to 1000 nM | 100 to 1000 nM | 1000 to 10000 nM | 1000 to 10000 nM | 100 to 1000 nM
C=CC(=O)N1CC2(CCN2C(=O)N(C)[C@H](C(=O)N[C@H]2Cc3cccc(n3)-c3ccc4c(c3)c(c(-c3cccnc3[C@H](C)OC)n4CC)CC(C)(C)COC(=O)[C@@H]3CCCN(N3)C2=O)C(C)C)C1 (atropisomer, axis not shown) [Example A636] | 1000 to 10000 nM | 100 to 1000 nM | < 10 nM | 100 to 1000 nM | 100 to 1000 nM | 1000 to 10000 nM | 1000 to 10000 nM | 10 to 100 nM
CCn1c(-c2cccnc2[C@H](C)OC)c2c3cc(ccc31)-c1csc(n1)C[C@H](NC(=O)C[C@@H](C)OC1CN(C(=O)C#CC(C)(C)N(C)C)C1)C(=O)N1CCC[C@H](N1)C(=O)OCC(C)(C)C2 (atropisomer, axis not shown) [Example A638] | 1000 to 10000 nM | 1000 to 10000 nM | 10 to 100 nM | 1000 to 10000 nM | 1000 to 10000 nM | > 10000 nM | 1000 to 10000 nM | < 10 nM
C=CC(=O)N1CC[C@H](C(=O)N(C)[C@H](C(=O)N[C@H]2Cc3cccc(c3)-c3ccc4c(c3)c(c(-c3cccnc3[C@H](C)OC)n4CC)CC(C)(C)COC(=O)[C@@H]3CCCN(N3)C2=O)[C@@H](C)C(F)(F)F)C1 (atropisomer, axis not shown) [Example A640] | 1000 to 10000 nM | 1000 to 10000 nM | 10 to 100 nM | 1000 to 10000 nM | 1000 to 10000 nM | 1000 to 10000 nM | 1000 to 10000 nM | 100 to 1000 nM
CCn1c(-c2cccnc2[C@H](C)OC)c2c3cc(ccc31)N1CCO[C@@H](C[C@H](NC(=O)[C@H](C(C)C)N(C)C(=O)C3(F)CCN(C(=O)/C=C/CN(C)C)CC3)C(=O)N3CCC[C@H](N3)C(=O)OCC(C)(C)C2)C1 (atropisomer, axis not shown) [Example A645] | 1000 to 10000 nM | > 10000 nM | 10 to 100 nM | 1000 to 10000 nM | 1000 to 10000 nM | 1000 to 10000 nM | 1000 to 10000 nM | 10 to 100 nM
CC#CC(=O)N1CC2(CCN2C(=O)N(C)[C@H](C(=O)N[C@H]2Cc3nc(cs3)-c3ccc4c(c3)c(c(-c3cccnc3[C@H](C)OC)n4CC)CC(C)(C)COC(=O)[C@@H]3CCCN(N3)C2=O)C(C)C)C1 (atropisomer, axis not shown) [Example A655] | 100 to 1000 nM | 10 to 100 nM | 10 to 100 nM | 100 to 1000 nM | 100 to 1000 nM | 1000 to 10000 nM | 100 to 1000 nM | 100 to 1000 nM
C=CC(=O)N1CC[C@]2(CCN2C(=O)N(C)[C@H](C(=O)N[C@H]2Cc3nc(cs3)-c3ccc4c(c3)c(c(-c3cccnc3[C@H](C)OC)n4CC)CC(C)(C)COC(=O)[C@@H]3CCCN(N3)C2=O)C(C)C)C1 (atropisomer, axis not shown) [Example A662] | 100 to 1000 nM | 10 to 100 nM | 10 to 100 nM | 100 to 1000 nM | 100 to 1000 nM | 100 to 1000 nM | 100 to 1000 nM | 10 to 100 nM
